Consider three compounds from patent US20110207751A1, “HETEROCYCLIC COMPOUNDS AND USES AS ANTICANCER AGENTS” (priority 2010, published 2011).

Experiment [1] concerns H596 cells (human adenosquamous lung carcinoma cell line). In words: Inhibition of cell proliferation, xCelligence cell index. The experiment is classed as cell-based. As to conditions: NCI-H596, 72 hr post compound treatment, read-out: calculated IC50. From the text: (§1) The biological activity of compounds disclosed herein was monitored and profiled using the Real-Time Cell Electronic Sensing (RT-CES®) system from ACEA Biosciences, Inc. The RT-CES system utilizes cell-substrate impedance technology to monitor cellular behavior inside tissue culture wells in a microtiter plate format. The technology features in the integration of molecular and cell biology with microelectronics and is based on the electronic detection of biological assay process. The details of this cell electronic sensing technology and associated devices, systems and methods of use are described in U.S. Pat. No. 7,167,585; U.S. Pat. No. 7,468,255; PCT publication number WO 2004/010102; U.S. Pat. No. 7,470,533; and U.S. Pat. No. 7,459,303, each of which is incorporated herein by reference. Additional details of RT-CES technology are further disclosed in U.S. Pat. No. 7,468,255.
(§2) For measurement of cell-substrate or cell-electrode impedance using RT-CES technology, microelectrodes having appropriate geometries are fabricated onto the bottom surfaces of microtiter plate or similar device, facing into the wells. […] When there are changes to the biological status of the cells analogue electronic readout signals are measured automatically and in real time, and are converted to digital signals for processing and for analysis. In a RT-CES system, a cell index (arbitrary representation of change in impedance) is automatically derived and provided based on measured electrode impedance values. […]
(§3) To quantify cell status based on the measured cell-electrode impedance, a parameter termed Cell Index is derived. Cell Index is a quantitative measure of the status of the cells in an electrode-containing well. […]
H596 cells (human adenosquamous lung carcinoma cell line) were seeded into wells of 96 well E-plate devices (Roche) with an initial seeding density of 5000 cells per well and were pre-incubated in incubator under standard cell culture condition for about 24 hours. […] The cell status was monitored prior to and after the compound addition using xCelligence system (Roche). […]

Experiment [2] has as its system H292 cells (human pulmonary lung carcinoma cell line). The description is as above. It is filed as cell-based. As to conditions: NCI-H292, 72 hr post compound treatment, read-out: calculated IC50.
Source text: as §1, §2, §3
H292 cells (human pulmonary lung carcinoma cell line) were seeded into wells of 96 well E-plate devices (Roche) with an initial seeding density of 5000 cells per well and were pre-incubated in incubator under standard cell culture condition for about 24 hours. […] The cell status was monitored prior to and after the compound addition using xCelligence system (Roche). […]

Experiment [3] deals with H1993 cells (human non-small cell lung cancer cell line). The experiment is described as above. The experiment is classed as cell-based. The conditions noted are these: NCI-H1993, 72 hr post compound treatment, read-out: calculated IC50.
In experiment [4] the test system is GTL16 cells (human gastric cancer cell line). Described as above. It is filed as cell-based. As to conditions: GTL 16, 72 hr post compound treatment, read-out: calculated IC50.
Source text: as §1
For measurement of cell-substrate or cell-electrode impedance using RT-CES technology, microelectrodes having appropriate geometries are fabricated onto the bottom surfaces of microtiter plate or similar device, facing into the wells. Cells are introduced into the wells of the devices, and make contact to and attach to the electrode surfaces. The presence, absence or change of properties of cells affects the electronic and ionic passage on the electrode sensor surfaces. Measuring the impedance between or among electrodes provides important information about biological status of cells present on the sensors. When there are changes to the biological status of the cells analogue electronic readout signals are measured automatically and in real time, and are converted to digital signals for processing and for analysis. In a RT-CES system, a cell index (arbitrary representation of change in impedance) is automatically derived and provided based on measured electrode impedance values. […]
as §3

For experiment [5], the system named is HT29 cells (human colon cancer cell line). The description is as above. As to conditions: HT-29, 72 hr post compound treatment, read-out: calculated IC50. The experiment is classed as cell-based.
Source text: as §1, §2, §3
HT29 cells (human colon cancer cell line) were seeded into wells of 96 well E-plate devices (Roche) with an initial seeding density of 5000 cells per well and were pre-incubated in incubator under standard cell culture condition for about 24 hours. […] The cell status was monitored prior to and after the compound addition using xCelligence system (Roche). […]

In experiment [6] the test system is A172 cells (human brain cancer cell line). The experiment is described as above. The experiment is classed as cell-based. As to conditions: A 172, 72 hr post compound treatment, read-out: calculated IC50.
Procedure: A172 cells (human brain cancer cell line) were seeded into wells of 96 well E-plate devices (Roche) with an initial seeding density of 5000 cells per well and were pre-incubated in incubator under standard cell culture condition for about 24 hours. […] The cell status was monitored prior to and after the compound addition using xCelligence system (Roche). […]
Experiment [7] has as its system U138MG cells (human brain cancer cell line). The experiment is described as above. The conditions noted are these: U138-MG, 72 hr post compound treatment, read-out: calculated IC50. It is filed as cell-based.
Procedure: U138MG cells (human brain cancer cell line) were seeded into wells of 96 well E-plate devices (Roche) with an initial seeding density of 5000 cells per well and were pre-incubated in incubator under standard cell culture condition for about 24 hours. […] The cell status was monitored prior to and after the compound addition using xCelligence system (Roche). […]
The test system of experiment [8] is SW1088 cells (human brain cancer cell line). The experiment is described as above. It is filed as cell-based. The conditions noted are these: 72 hr post compound treatment, read-out: calculated IC50.
Source text: For measurement of cell-substrate or cell-electrode impedance using RT-CES technology, microelectrodes having appropriate geometries are fabricated onto the bottom surfaces of microtiter plate or similar device, facing into the wells. Cells are introduced into the wells of the devices, and make contact to and attach to the electrode surfaces. The presence, absence or change of properties of cells affects the electronic and ionic passage on the electrode sensor surfaces. Measuring the impedance between or among electrodes provides important information about biological status of cells present on the sensors. When there are changes to the biological status of the cells analogue electronic readout signals are measured automatically and in real time, and are converted to digital signals for processing and for analysis. In a RT-CES system, a cell index (arbitrary representation of change in impedance) is automatically derived and provided based on measured electrode impedance values. The cell index obtained for a given well reflects: 1) how many cells are attached to the electrode surfaces in this well; 2) how well cells are attached to the electrode surfaces in this well. […]
SW1088 cells (human brain cancer cell line) were seeded into wells of 96 well E-plate devices (Roche) with an initial seeding density of 5000 cells per well and were pre-incubated in incubator under standard cell culture condition for about 24 hours. […] The cell status was monitored prior to and after the compound addition using xCelligence system (Roche). […]
The subject of a further experiment is MAP-rich tubulin. In words: In vitro microtubule assembly assay. The experiment is classed as biochemical. As to conditions: absorbance at 405 nm. Here is the method:
In vitro microtubule assembly assay. Microtubule polymerization was conducted in a 96-well microtiter plate with MAP-rich tubulin and various concentrations of COMPOUND O in a buffer containing 80 mM PIPES pH 6.9, 0.5 mM EGTA, 2 mM MgCl2, 1 mM GTP, 10% glycerol and 4% (v/v) dimethyl sulfoxide (DMSO) based on the HTS-tubulin polymerization assay kit protocol (Cytoskeleton). The increase in absorbance was measured at 405 nm a Beckman Multimode DTX880 plate reader at 37° C. and recorded every 60 seconds for 30 minutes.

Each structure is given as a SMILES string. Where a name gives a salt, the structure may show the parent alone.

With `CCc1ccc(Nc2nc(-c3c(C)nc4sccn34)cs2)cc1` [COMPOUND O, 2-(4-ethylphenyl)amino-4-(6-methylimidazo[2,1-b]thiazol-5-yl)-thiazole monohydrobromide], the IC50 is 37.9 nM in experiment [1]; 10.8 nM in [2]; 60.2 nM in experiment [3]; 67 nM in experiment [4]; 25.4 nM in experiment [5]; 11.6 nM in experiment [6]. In addition, the IC50 in experiment [7] is 3.41 nM; in experiment [8], 21.2 nM. The “effect on tubulin polymerization” value with MAP-rich tubulin (0.04 μM) was “no inhibition”. In the experiment on MAP-rich tubulin (various concentrations), the “effect on tubulin polymerization, concentration dependence” value is on record as “inhibited in a concentration-dependent manner”.
For the compound `CC(=O)O[C@H]1C(=O)[C@@]2(C)[C@H]([C@H](OC(=O)c3ccccc3)[C@]3(O)C[C@H](OC(=O)[C@H](O)[C@@H](NC(=O)c4ccccc4)c4ccccc4)C(C)=C1C3(C)C)[C@]1(OC(C)=O)CO[C@@H]1C[C@@H]2O` [paclitaxel], the IC50 is 12.5 nM in experiment [1]; 2.59 nM in [2]; 5.12 nM in experiment [3]; 1.02 nM in experiment [4]; 2.52 nM in experiment [5]; 4.46 nM in experiment [6]. Besides, the half-maximal inhibitory concentration (IC50) was 18.1 nM in [7] and 13.1 nM in [8]. Moreover, in the experiment with MAP-rich tubulin (5 μM), the “effect on tubulin polymerization” value is given as “further enhanced compared to that of the negative control”.
For `CC[C@]1(O)C[C@H]2CN(CCc3c([nH]c4ccccc34)[C@@](C(=O)OC)(c3cc4c(cc3OC)N(C=O)[C@H]3[C@@](O)(C(=O)OC)[C@H](OC(C)=O)[C@]5(CC)C=CCN6CC[C@]43[C@@H]65)C2)C1` [vincristine], the IC50 was 36.9 nM in experiment [1]; 2.63 nM in experiment [2]; 2.43 nM in experiment [3]; 3.75 nM in experiment [4]; 12.7 nM in experiment [5]; 1.3 nM in [6]. Also, the 50% inhibitory concentration (IC50) in experiment [7] is 0.641 nM; in experiment [8], 4.96 nM. Further, in the experiment on MAP-rich tubulin (5 μM), the “inhibition of tubulin polymerization compared with control sample” value was “more than 50%”.
